One experiment relates to SW48 cells. Briefly: Proliferation assay SW48 (CellTiterGlo). The experiment is classed as cell-based. The conditions noted are these: SW48 colon carcinoma cells, 96 hours, CellTiterGlo, geometric mean of at least 2, read-out: Proliferation Assay SW48 GI50. Summed up: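 Read-out is CellTiterGlo luminescence after 96 hours of compound exposure, with % growth calculated against day-0 and vehicle-treated ATP levels. SW48 seeded at 2,000 cells/well, dosed next day with eight 3-fold serial dilutions, 0.1% DMSO. GI50 reported as geometric mean, at least 2 replicates.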

Experiment [1] addresses T1, WRN helicase (aa N517-P1238) (Homo sapiens, UniProt Q14191).
T1 construct: The core helicase motif of the WRN protein (aa N517-P1238) was produced for this assay; His (N); ZZ (N); 3C protease cleavage site (N); made in house; host or cells: Sf21 insect cells (baculovirus; virus and BIICs made in SF9)
Briefly: WRN ATPase assay (DNA dependent ATP hydrolysis, ADP-Glo). To be noted: 3 hours pre-incubation, 300 micromolar ATP, FLAP26 DNA; geometric mean of at least 2. It is filed as biochemical. Summed up:
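DNA-dependent ATP hydrolysis detected as ADP by ADP-Glo luminescence, using 300 μM ATP, 0.2 nM FLAP26 substrate and 10 nM WRN aa N517-P1238 (Tris pH 7.5 buffer, 2 mM MgCl2, 50 mM NaCl). IC50s fitted from normalized duplicate half-log dilutions; reported as geometric means of at least 2 replicates.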
A general note: ADP-Glo turns the ADP formed in a reaction into a luminescent signal.

A further experiment deals with DLD1-WRN-KO cells. Briefly: Proliferation assay DLD1-WRN-KO (CellTiterGlo, off-target effects). It is filed as cell-based. The conditions noted are these: 96 hours, geometric mean of at least 2. Summed up: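 DLD1 cells with CRISPR knockout of WRN were exposed overnight-seeded to eight 3-fold compound dilutions (0.1% DMSO) for 96 h at 37 °C. Viability was read as ATP by CellTiterGlo luminescence against a day-0 plate, giving GI50 and residual viability at top concentration.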
(ATP-based viability assays read luminescence as a measure of living cells.)

pIC50: −log10 of the molar value. Read-outs that look alike come from different tables or passages of the source.

T1 sequence (Q14191 517-1238): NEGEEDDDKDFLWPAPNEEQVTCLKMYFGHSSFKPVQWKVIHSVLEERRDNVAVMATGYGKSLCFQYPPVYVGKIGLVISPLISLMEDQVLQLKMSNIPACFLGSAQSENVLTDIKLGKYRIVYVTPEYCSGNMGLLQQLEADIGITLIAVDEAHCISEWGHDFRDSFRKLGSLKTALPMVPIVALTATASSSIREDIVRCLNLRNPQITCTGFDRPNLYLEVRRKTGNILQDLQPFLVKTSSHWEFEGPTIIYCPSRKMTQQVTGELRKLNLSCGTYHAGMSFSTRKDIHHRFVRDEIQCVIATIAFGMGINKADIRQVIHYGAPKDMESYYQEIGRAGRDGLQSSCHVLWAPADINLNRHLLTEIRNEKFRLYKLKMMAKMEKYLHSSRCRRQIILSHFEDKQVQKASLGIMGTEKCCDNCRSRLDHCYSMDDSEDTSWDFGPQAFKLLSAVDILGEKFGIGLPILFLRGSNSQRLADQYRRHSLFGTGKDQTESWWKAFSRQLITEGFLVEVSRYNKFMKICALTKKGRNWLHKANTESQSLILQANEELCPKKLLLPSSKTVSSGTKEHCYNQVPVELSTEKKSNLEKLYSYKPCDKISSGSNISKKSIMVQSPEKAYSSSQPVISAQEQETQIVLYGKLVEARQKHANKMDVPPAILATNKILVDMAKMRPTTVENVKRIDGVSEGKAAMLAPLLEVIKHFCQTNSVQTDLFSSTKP

For orientation: pIC50 means −log10 of the IC50, conventionally taken in molar units. `CCc1c(N2CCN(C(=O)c3c(O)ccc4nccn34)CC2)c(=O)n2nc(C3=CCOCC3)nc2n1CC(=O)Nc1ccc(C(F)(F)F)cc1Cl` [Example 46, N-(2-chloro-4-(trifluoromethyl)phenyl)-2-(2-(3,6-dihydro-2H-pyran-4-yl)-5-ethyl-6-(4-(6-hydroxyimidazo[1,2-a]pyridine-5-carbonyl)piperazin-1-yl)-7-oxo-[1,2,4]triazolo[1,5-a]pyrimidin-4(7H)-yl)acetamide]: the GI50 in the experiment on SW48 cells (Homo sapiens, SW48, 96 h) was 200 nM; in the experiment on DLD1-WRN-KO cells it was more than 10000 nM. This compound gave a pIC50 in experiment [1] of 7.05.
For the compound `CCc1c(N2CCN(C(=O)c3ccnc(C)c3O)CC2)c(=O)n2nc(C3=CCOCC3)nc2n1CC(=O)Nc1ccc(C(F)(F)F)cc1C` [Example 47, 2-(2-(3,6-dihydro-2H-pyran-4-yl)-5-ethyl-6-(4-(3-hydroxy-2-methylisonicotinoyl)piperazin-1-yl)-7-oxo-[1,2,4]triazolo[1,5-a]pyrimidin-4(7H)-yl)-N-(2-methyl-4-(trifluoromethyl)phenyl)acetamide], the GI50 was 900 nM in the experiment with SW48 cells (Homo sapiens, SW48, 96 h) and more than 10000 nM in the experiment on DLD1-WRN-KO cells. The pIC50 in experiment [1] was 7.05.
As for `Cc1c(N2CCN(C(=O)c3cccnc3O)CC2)c(=O)n2nc(C3=CCOCC3)nc2n1CC(=O)Nc1ccc(C(F)(F)F)cc1` [Example 48, 2-(2-(3,6-dihydro-2H-pyran-4-yl)-6-(4-(2-hydroxynicotinoyl)piperazin-1-yl)-5-methyl-7-oxo-[1,2,4]triazolo[1,5-a]pyrimidin-4(7H)-yl)-N-(4-(trifluoromethyl)phenyl)acetamide], the GI50 in the experiment with SW48 cells (Homo sapiens, SW48, 96 h) was more than 10000 nM; with DLD1-WRN-KO cells, more than 10000 nM. In experiment [1], this compound showed a pIC50 of 7.00.
`CCc1c(N2CCN(C(=O)c3ccnc(C)c3O)CC2)c(=O)n2nc(C3=CCOCC3)nc2n1CC(=O)Nc1ccc(C(F)(F)F)cc1Cl` [Example 49, N-(2-chloro-4-(trifluoromethyl)phenyl)-2-(2-(3,6-dihydro-2H-pyran-4-yl)-5-ethyl-6-(4-(3-hydroxy-2-methylisonicotinoyl)piperazin-1-yl)-7-oxo-[1,2,4]triazolo[1,5-a]pyrimidin-4(7H)-yl)acetamide]: the GI50 in the experiment on SW48 cells (Homo sapiens, SW48, 96 h) is 500 nM; with DLD1-WRN-KO cells, more than 10000 nM. Also, the pIC50 in experiment [1] was 6.70.
With `CCc1c(N2CCN(C(=O)c3nccc4cccc(O)c34)CC2)c(=O)n2nc(C3=CCOCC3)nc2n1CC(=O)Nc1ccc(C(F)(F)F)cc1C` [Example 50, 2-(2-(3,6-dihydro-2H-pyran-4-yl)-5-ethyl-6-(4-(8-hydroxyisoquinoline-1-carbonyl)piperazin-1-yl)-7-oxo-[1,2,4]triazolo[1,5-a]pyrimidin-4(7H)-yl)-N-(2-methyl-4-(trifluoromethyl)phenyl)acetamide], the GI50 in the experiment with SW48 cells (Homo sapiens, SW48, 96 h) was 1000 nM; in the experiment with DLD1-WRN-KO cells, more than 10000 nM. In experiment [1], the pIC50 is 6.52.
For the compound `CCc1c(N2CCN(C(=O)c3ncc(F)c4cc[nH]c34)CC2)c(=O)n2nc(C3=CCOCC3)nc2n1CC(=O)Nc1ccc(C(F)(F)F)cc1C` [Example 51, 2-(2-(3,6-dihydro-2H-pyran-4-yl)-5-ethyl-6-(4-(4-fluoro-1H-pyrrolo[2,3-c]pyridine-7-carbonyl)piperazin-1-yl)-7-oxo-[1,2,4]triazolo[1,5-a]pyrimidin-4(7H)-yl)-N-(2-methyl-4-(trifluoromethyl)phenyl)acetamide], the GI50 with SW48 cells (Homo sapiens, SW48, 96 h) was determined as 2000 nM; in the experiment with DLD1-WRN-KO cells, 7000 nM. The pIC50 in experiment [1] was 6.22.
In the case of `CCc1c(N2CCN(C(=O)c3cn(C)c(=O)[nH]3)CC2)c(=O)n2nc(C3=CCCC3)nc2n1CC(=O)Nc1ccc(C(F)(F)F)cc1` [Example 52, 2-(2-(cyclopent-1-en-1-yl)-5-ethyl-6-(4-(1-methyl-2-oxo-2,3-dihydro-1H-imidazole-4-carbonyl)piperazin-1-yl)-7-oxo-[1,2,4]triazolo[1,5-a]pyrimidin-4(7H)-yl)-N-(4-(trifluoromethyl)phenyl)acetamide], the GI50 in the experiment with SW48 cells (Homo sapiens, SW48, 96 h) is 3000 nM; with DLD1-WRN-KO cells, more than 10000 nM. Also, the pIC50 in experiment [1] is 7.30.
In the same order, the values of `CCc1c(N2CCN(C(=O)c3nn(C)c(=O)[nH]3)CC2)c(=O)n2nc(C3=CCC(OC)CC3)nc2n1CC(=O)Nc1ccc(C(F)(F)F)cc1` (stereo not drawn) [Example 53, 2-(5-ethyl-2-(4-methoxycyclohex-1-en-1-yl)-6-(4-(1-methyl-5-oxo-4,5-dihydro-1H-1,2,4-triazole-3-carbonyl)piperazin-1-yl)-7-oxo-[1,2,4]triazolo[1,5-a]pyrimidin-4(7H)-yl)-N-(4-(trifluoromethyl)phenyl)acetamide] are 800 nM, more than 10000 nM and 7.22.
In the case of `CCc1c(N2CCN(C(C)=O)CC2)c(=O)n2nc(C3=CCOCC3)nc2n1CC(=O)Nc1ccc(C(F)(F)F)cc1` [Example 54, 2-(6-(4-acetylpiperazin-1-yl)-2-(3,6-dihydro-2H-pyran-4-yl)-5-ethyl-7-oxo-[1,2,4]triazolo[1,5-a]pyrimidin-4(7H)-yl)-N-(4-(trifluoromethyl)phenyl)acetamide], the GI50 in the experiment with SW48 cells (Homo sapiens, SW48, 96 h) was 1000 nM; with DLD1-WRN-KO cells, more than 10000 nM. Moreover, the pIC50 in experiment [1] is 7.00.
As for `CCc1c(N2CCN(C(C)=O)CC2)c(=O)n2nc(C3=CCC(OC)CC3)nc2n1CC(=O)Nc1ccc(C(F)(F)F)cc1` (stereo not drawn) [Example 55, 2-(6-(4-acetylpiperazin-1-yl)-5-ethyl-2-(4-methoxycyclohex-1-en-1-yl)-7-oxo-[1,2,4]triazolo[1,5-a]pyrimidin-4(7H)-yl)-N-(4-(trifluoromethyl)phenyl)acetamide], the GI50 was 800 nM with SW48 cells (Homo sapiens, SW48, 96 h) and more than 10000 nM in the experiment with DLD1-WRN-KO cells. Also, the pIC50 in experiment [1] was 7.00.
With `CCc1c(N2CCN(C(=O)C3CCOC3)CC2)c(=O)n2nc(C3=CCCCO3)nc2n1CC(=O)Nc1ccc(C(F)(F)F)cc1` (stereo not drawn) [Example 56, 2-(2-(3,4-dihydro-2H-pyran-6-yl)-5-ethyl-7-oxo-6-(4-(tetrahydrofuran-3-carbonyl)piperazin-1-yl)-[1,2,4]triazolo[1,5-a]pyrimidin-4(7H)-yl)-N-(4-(trifluoromethyl)phenyl)acetamide], the GI50 in the experiment with SW48 cells is 1000 nM; in the experiment with DLD1-WRN-KO cells it was more than 10000 nM. In experiment [1], this compound showed a pIC50 of 7.00.
`CCc1c(N2CCN(C(C)=O)CC2)c(=O)n2nc(C3=CCCCO3)nc2n1CC(=O)Nc1ccc(C(F)(F)F)cc1` [Example 57, 2-(6-(4-acetylpiperazin-1-yl)-2-(3,4-dihydro-2H-pyran-6-yl)-5-ethyl-7-oxo-[1,2,4]triazolo[1,5-a]pyrimidin-4(7H)-yl)-N-(4-(trifluoromethyl)phenyl)acetamide]: the GI50 in the experiment on SW48 cells (Homo sapiens, SW48, 96 h) was 1000 nM; in the experiment with DLD1-WRN-KO cells, more than 10000 nM. This compound had a pIC50 in experiment [1] of 7.00.
Regarding `CCc1c(N2CCN(C(C)=O)CC2)c(=O)n2nc(C3=CCOCC3)nc2n1CC(=O)Nc1ccc(C(F)(F)F)cc1C` [Example 58, 2-(6-(4-acetylpiperazin-1-yl)-2-(3,6-dihydro-2H-pyran-4-yl)-5-ethyl-7-oxo-[1,2,4]triazolo[1,5-a]pyrimidin-4(7H)-yl)-N-(2-methyl-4-(trifluoromethyl)phenyl)acetamide], the GI50 in the experiment on SW48 cells (Homo sapiens, SW48, 96 h) is 2000 nM; in the experiment on DLD1-WRN-KO cells, more than 10000 nM. This compound also had a negative-log IC50 (pIC50) in experiment [1] of 7.00.
As for `CCc1c(N2CCN(C(C)=O)CC2)c(=O)n2nc(C3=CCOCC3)nc2n1CC(=O)Nc1ccc(C(F)(F)F)cc1Cl` [Example 59, 2-(6-(4-acetylpiperazin-1-yl)-2-(3,6-dihydro-2H-pyran-4-yl)-5-ethyl-7-oxo-[1,2,4]triazolo[1,5-a]pyrimidin-4(7H)-yl)-N-(2-chloro-4-(trifluoromethyl)phenyl)acetamide], the GI50 in the experiment with SW48 cells (Homo sapiens, SW48, 96 h) was 1000 nM; in the experiment on DLD1-WRN-KO cells, more than 10000 nM. The pIC50 in experiment [1] was 6.52.
As for `CCc1c(N2CCN(C(=O)C3CCOC3)CC2)c(=O)n2nc(C3=CCCCO3)nc2n1CC(=O)Nc1ccc(C(F)(F)F)cc1` (stereo not drawn) [Example 60, 2-(2-(3,4-dihydro-2H-pyran-6-yl)-5-ethyl-7-oxo-6-(4-(tetrahydrofuran-3-carbonyl)piperazin-1-yl)-[1,2,4]triazolo[1,5-a]pyrimidin-4(7H)-yl)-N-(4-(trifluoromethyl)phenyl)acetamide], the GI50 is 3000 nM with SW48 cells and more than 10000 nM with DLD1-WRN-KO cells. Also, the pIC50 in experiment [1] was 6.52.
The corresponding values for `CCc1c(N2CCN(C(=O)C3CCOC3)CC2)c(=O)n2nc(C3=CCCCO3)nc2n1CC(=O)Nc1ccc(C(F)(F)F)cc1` (stereo not drawn) [Example 61, 2-(2-(3,4-dihydro-2H-pyran-6-yl)-5-ethyl-7-oxo-6-(4-(tetrahydrofuran-3-carbonyl)piperazin-1-yl)-[1,2,4]triazolo[1,5-a]pyrimidin-4(7H)-yl)-N-(4-(trifluoromethyl)phenyl)acetamide] are 4000 nM, more than 10000 nM and 6.40.
On to `CC(=O)N1CCN(c2c(C)n(CC(=O)Nc3ccc(S(F)(F)(F)(F)F)cc3C)c3nc(C4=CCOCC4)nn3c2=O)CC1` [Example 62, 2-(6-(4-acetylpiperazin-1-yl)-2-(3,6-dihydro-2H-pyran-4-yl)-5-methyl-7-oxo-[1,2,4]triazolo[1,5-a]pyrimidin-4(7H)-yl)-N-(2-methyl-4-(pentafluoro-l6-sulfaneyl)phenyl)acetamide], for which the GI50 with SW48 cells (Homo sapiens, SW48, 96 h) is 1000 nM; with DLD1-WRN-KO cells it was more than 10000 nM. This compound gave a pIC50 in experiment [1] of 6.30.
